Experimental data as given in paper PMC9569640, “Structural Insights into the Binding Propensity of Human SHIP2 SH2 to Oncogenic CagA Isoforms from Helicobacter pylori” (International Journal of Molecular Sciences, 2022).
Where a chain is given by its changes, count along the chain named. Like-named read-outs stand apart in the source and are kept apart here. Square brackets hold non-standard residues; d marks the D form. Peptide text beside a SMILES is read from it. pY = N[C@@H](Cc1ccc(OP(=O)(O)O)cc1)C(=O)O

Tests used:
[1] = molecular target: T1, SHIP2-SH2 (wild type) (Homo sapiens, UniProt O15357); assay: Fluorescence polarization binding of FAM-labeled phosphopeptides to wild-type SHIP2-SH2; settings: FP assay, N-terminally FAM-labeled phosphopeptide 100 nM, 20 mM Tris, 100 mM NaCl, 10 mM DTT, 0.02% NaN3, pH 7.5, each reaction repeated three times, averaged, ± standard error of curve fitting, read-out: dissociation constant (KD) for wild-type SHIP2-SH2
T1 construct: The SHIP2 SH2 domain (hereafter represented by SHIP2-SH2); made in house
T1 sequence (O15357 21-117 limits assumed): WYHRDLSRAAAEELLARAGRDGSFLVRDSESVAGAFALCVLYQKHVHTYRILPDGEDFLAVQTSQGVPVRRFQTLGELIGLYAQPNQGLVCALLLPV
Procedure: (§1) Expression and purification of wild-type SHIP2-SH2 and its mutants including R28A, S49A, E50A, S51A, R70A, S84A and Q107A were carried out using the previously described method, and circular dichroism (CD) spectra were collected to confirm no obvious secondary structure change of the mutants. The purified proteins were concentrated to a final concentration of 0.2 mM for NMR experiments in the NMR buffer containing 90% H2O/10% D2O (v/v), 20 mM Tris, 100 mM NaCl, 10 mM DTT and 0.02% NaN3 at pH 7.5. Peptides derived from the four types of EPIYA motifs were synthesized by GL Biochem Ltd. (Shanghai, China). Tyr-phosphorylated peptides included: 8-mer (E-P-I-pY-A-K-V-N) and 13-mer (E-N-E-P-I-pY-A-K-V-N-K-K-K) EPIYA-A; 8-mer (E-P-I-pY-A-Q-V-A) and 13-mer (P-E-E-P-I-pY-A-Q-V-A-K-K-V) EPIYA-B; and 8-mer EPIYA-CD (E-P-I-pY-A-T-I-D), 13-mer EPIYA-C (S-P-E-P-I-pY-A-T-I-D-D-L-G) and 13-mer EPIYA-D (S-P-E-P-I-pY-A-T-I-D-F-D-E). The purities of the peptides were determined to be above 98% by high performance liquid chromatography (HPLC) and the molecular weights were confirmed by electrospray ionization mass spectrometry (ESI-MS).
(§2) The used phosphopeptides for different versions of CagA EPIYA A/B/C/D motifs were labeled with FAM at the N-terminal end and dissolved in a buffer containing 20 mM Tris, 100 mM NaCl, 10 mM DTT and 0.02% NaN3, at pH 7.5. The peptide concentration was kept at 100 nM, while wild-type SHIP2-SH2 and its mutants were serially diluted with the concentrations ranging from micromolar to nanomolar, and then mixed with the peptide, respectively. FP values of FAM-labeled peptides bound by SHIP2-SH2 were measured using a SpectraMax i3x multi-mode plate reader (Molecular Devices) by recording the excitation at 485 nm and emission at 528 nm. Each binding reaction was repeated three times, and the polarization values were averaged (given in units of mP). The averaged polarization value of each titration point was subtracted from that of the free peptide to obtain the final value. The dissociation constants (KD) were calculated using the final polarization value of each titration point as previously described.

[2] = molecular target: T2, SHIP2-SH2 R28A (Homo sapiens, UniProt O15357, R28A); assay: Fluorescence polarization binding, SHIP2-SH2 mutant R28A; settings: FP assay; FAM-labeled 13-mer phosphopeptide 100 nM; pH 7.5; n = 3 averaged; ± standard error of fitting; SEM; read-out: dissociation constant (KD) for SHIP2-SH2 R28A
T2 construct: The SHIP2 SH2 domain (hereafter represented by SHIP2-SH2); made in house
T2 sequence (O15357 21-117 R28A limits assumed): T1 sequence (O15357 21-117 limits assumed) with R8A
Procedure: as §1, §2

[3] = molecular target: T3, SHIP2-SH2 S49A (Homo sapiens, UniProt O15357, S49A); assay: Fluorescence polarization binding, SHIP2-SH2 mutant S49A; settings: FP assay; FAM-labeled 13-mer phosphopeptide 100 nM; pH 7.5; n = 3 averaged; ± standard error of fitting; SEM; read-out: dissociation constant (KD) for SHIP2-SH2 S49A
T3 construct: The SHIP2 SH2 domain (hereafter represented by SHIP2-SH2); made in house
T3 sequence (O15357 21-117 S49A limits assumed): T1 sequence (O15357 21-117 limits assumed) with S29A
Procedure: as §1, §2

[4] = molecular target: T4, SHIP2-SH2 E50A (Homo sapiens, UniProt O15357, E50A); assay: Fluorescence polarization binding, SHIP2-SH2 mutant E50A; settings: FP assay; FAM-labeled 13-mer phosphopeptide 100 nM; pH 7.5; n = 3 averaged; ± standard error of fitting; SEM; read-out: dissociation constant (KD) for SHIP2-SH2 E50A
T4 construct: The SHIP2 SH2 domain (hereafter represented by SHIP2-SH2); made in house
T4 sequence (O15357 21-117 E50A limits assumed): T1 sequence (O15357 21-117 limits assumed) with E30A
Procedure: as §1, §2

[5] = molecular target: T5, SHIP2-SH2 S51A (Homo sapiens, UniProt O15357, S51A); assay: Fluorescence polarization binding, SHIP2-SH2 mutant S51A; settings: FP assay; FAM-labeled 13-mer phosphopeptide 100 nM; pH 7.5; n = 3 averaged; ± standard error of fitting; SEM; read-out: dissociation constant (KD) for SHIP2-SH2 S51A
T5 construct: The SHIP2 SH2 domain (hereafter represented by SHIP2-SH2); made in house
T5 sequence (O15357 21-117 S51A limits assumed): T1 sequence (O15357 21-117 limits assumed) with S31A
Procedure: as §1, §2

[6] = molecular target: T6, SHIP2-SH2 R70A (Homo sapiens, UniProt O15357, R70A); assay: Fluorescence polarization binding, SHIP2-SH2 mutant R70A; settings: FP assay; FAM-labeled 13-mer phosphopeptide 100 nM; pH 7.5; n = 3 averaged; ± standard error of fitting; SEM; read-out: dissociation constant (KD) for SHIP2-SH2 R70A
T6 construct: The SHIP2 SH2 domain (hereafter represented by SHIP2-SH2); made in house
T6 sequence (O15357 21-117 R70A limits assumed): T1 sequence (O15357 21-117 limits assumed) with R50A
Procedure: as §1, §2

[7] = molecular target: T7, SHIP2-SH2 S84A (Homo sapiens, UniProt O15357, S84A); assay: Fluorescence polarization binding, SHIP2-SH2 mutant S84A; settings: FP assay; FAM-labeled 13-mer phosphopeptide 100 nM; pH 7.5; n = 3 averaged; ± standard error of fitting; SEM; read-out: dissociation constant (KD) for SHIP2-SH2 S84A
T7 construct: The SHIP2 SH2 domain (hereafter represented by SHIP2-SH2); made in house
T7 sequence (O15357 21-117 S84A limits assumed): T1 sequence (O15357 21-117 limits assumed) with S64A
Procedure: as §1, §2

[8] = molecular target: T8, SHIP2-SH2 Q107A (Homo sapiens, UniProt O15357, Q107A); assay: Fluorescence polarization binding, SHIP2-SH2 mutant Q107A; settings: FP assay; FAM-labeled 13-mer phosphopeptide 100 nM; pH 7.5; n = 3 averaged; ± standard error of fitting; SEM; read-out: dissociation constant (KD) for SHIP2-SH2 Q107A
T8 construct: The SHIP2 SH2 domain (hereafter represented by SHIP2-SH2); made in house
T8 sequence (O15357 21-117 Q107A limits assumed): T1 sequence (O15357 21-117 limits assumed) with Q87A
Procedure: as §1, §2

[9] = molecular target: T1, SHIP2-SH2 (wild type); settings: summary Figure 6F, value from the authors' earlier NMR/FP study, cited from earlier work
Description: Figure 6 The binding interface and affinity of SHIP2-SH2 for different native ligands. The binding interface of SHIP2-SH2 for FcgR2B ITIM (A), CagA EPIYA-C/D (B), c-MET C-terminus (C), CagA EPIYA-A/B (D) is colored in blue. The additional interface of SHIP2-SH2 for 13-mer FcgR2B ITIM compared to 8-mer FcgR2B ITIM is colored in green. The interface was drawn according to the residues of SHIP2-SH2 showing a CSP greater than 0.2 ppm in NMR titration experiments with respective ligand. (E) The summarized three regions of SHIP2-SH2 which are differently engaged for binding different ligands are hig ...

CC[C@H](C)[C@H](NC(=O)[C@@H](NC(=O)[C@H](C)NC(=O)[C@H](Cc1ccc(OP(=O)(O)O)cc1)NC(=O)[C@@H](NC(=O)[C@@H]1CCCN1C(=O)[C@@H](N)CCC(=O)O)[C@@H](C)CC)[C@@H](C)O)C(=O)N[C@@H](CC(=O)O)C(=O)O [8-mer EPIYA-CD] (H-EPI[pY]ATID-OH)
Kd [1]: 4.45 µM

CC[C@H](C)[C@H](NC(=O)[C@@H]1CCCN1C(=O)[C@H](CCC(=O)O)NC(=O)[C@H](CC(N)=O)NC(=O)[C@@H](N)CCC(=O)O)C(=O)N[C@@H](Cc1ccc(OP(=O)(O)O)cc1)C(=O)N[C@@H](C)C(=O)N[C@@H](CCCCN)C(=O)N[C@H](C(=O)N[C@@H](CC(N)=O)C(=O)N[C@@H](CCCCN)C(=O)N[C@@H](CCCCN)C(=O)N[C@@H](CCCCN)C(=O)O)C(C)C [EPIYA-A] (H-ENEPI[pY]AKVNKKK-OH)
Kd ([1]; SEM): 23.4 ± 1.03 µM
Kd [2]: 133 ± 6.95 µM
Kd [3]: 419 ± 18.6 µM
Kd [4]: 8.28 ± 0.67 µM
Kd [5]: 180 ± 37.4 µM
Kd [6]: 539 ± 24.2 µM
Kd [7]: 16.4 ± 0.47 µM
Kd [8]: 25.5 ± 1.5 µM

CC[C@H](C)[C@H](NC(=O)[C@@H]1CCCN1C(=O)[C@H](CCC(=O)O)NC(=O)[C@H](CCC(=O)O)NC(=O)[C@@H]1CCCN1)C(=O)N[C@@H](Cc1ccc(OP(=O)(O)O)cc1)C(=O)N[C@@H](C)C(=O)N[C@@H](CCC(N)=O)C(=O)N[C@H](C(=O)N[C@@H](C)C(=O)N[C@@H](CCCCN)C(=O)N[C@@H](CCCCN)C(=O)N[C@H](C(=O)O)C(C)C)C(C)C [EPIYA-B] (H-PEEPI[pY]AQVAKKV-OH)
Kd ([1]; SEM): 18.6 ± 1.25 µM
Kd [2]: 143 ± 17.4 µM
Kd [3]: 303 ± 16.2 µM
Kd [4]: 6.6 ± 0.6 µM
Kd [5]: 171 ± 36 µM
Kd [6]: 532 ± 47.5 µM
Kd [7]: 17.9 ± 0.95 µM
Kd [8]: 21.4 ± 1.33 µM

CC[C@H](C)[C@H](NC(=O)[C@@H](NC(=O)[C@H](C)NC(=O)[C@H](Cc1ccc(OP(=O)(O)O)cc1)NC(=O)[C@@H](NC(=O)[C@@H]1CCCN1C(=O)[C@H](CCC(=O)O)NC(=O)[C@@H]1CCCN1C(=O)[C@@H](N)CO)[C@@H](C)CC)[C@@H](C)O)C(=O)N[C@@H](CC(=O)O)C(=O)N[C@@H](CC(=O)O)C(=O)N[C@@H](CC(C)C)C(=O)NCC(=O)O [EPIYA-C] (H-SPEPI[pY]ATIDDLG-OH)
Kd ([1]; SEM): 2.96 ± 0.14 µM
Kd [2]: 12.9 ± 1.38 µM
Kd [3]: 77.5 ± 3.12 µM
Kd [4]: 0.96 ± 0.14 µM
Kd [5]: 22.4 ± 2.88 µM
Kd [6]: 119 ± 4.93 µM
Kd [7]: 2.79 ± 0.18 µM
Kd [8]: 2.78 ± 0.14 µM

CC[C@H](C)[C@H](NC(=O)[C@@H](NC(=O)[C@H](C)NC(=O)[C@H](Cc1ccc(OP(=O)(O)O)cc1)NC(=O)[C@@H](NC(=O)[C@@H]1CCCN1C(=O)[C@H](CCC(=O)O)NC(=O)[C@@H]1CCCN1C(=O)[C@@H](N)CO)[C@@H](C)CC)[C@@H](C)O)C(=O)N[C@@H](CC(=O)O)C(=O)N[C@@H](Cc1ccccc1)C(=O)N[C@@H](CC(=O)O)C(=O)N[C@@H](CCC(=O)O)C(=O)O [EPIYA-D]
Kd ([1]; SEM): 3.16 ± 0.13 µM
Kd [2]: 15.5 ± 2.77 µM
Kd [3]: 76.8 ± 5.16 µM
Kd [4]: 1.14 ± 0.16 µM
Kd [5]: 24.6 ± 2.23 µM
Kd [6]: 116 ± 6.61 µM
Kd [7]: 2.69 ± 0.19 µM
Kd [8]: 3.46 ± 0.2 µM

FcgR2B: Tyr-phosphorylated FcgR2B-ITIM peptide from the authors' previous study (ENTITYSLLMHPD; not fully specified; phospho-Tyr292 (ITIM tyrosine); an 8-mer form (289-296, pY-3 to pY+4) was also used in the cited study)
Kd ([9]; read-out: Binding Affinities KD for SHIP2-SH2 (FcgR2B ITIM phosphopeptide)): 0.4 µM

c-MET: Y1356-phosphorylated c-MET C-terminus peptide from the authors' previous study (NATYVNVK; not fully specified; phospho-Tyr1356)
Kd ([9]; read-out: Binding Affinities KD for SHIP2-SH2 (c-MET phosphopeptide)): 7.43 µM
